From PMC6364133, “Selectivity of Dietary Phenolics for Inhibition of Human Monoamine Oxidases A and B” (BioMed Research International, 2019)
“Also recorded” adds a separate entry of the source. Like-named read-outs stand apart in the source and are kept apart here. Values belong to the molecule of their own block, whether it stands above or below them.

What was measured:
MAO-A [1] = target: T1, MAO-A (Homo sapiens, UniProt P21397); assay: MAO-A inhibition, kynuramine to 4-hydroxyquinoline, HPLC-fluorescence; assay type: biochemical
T1 construct: purchased BD Biosciences (San Jose, CA) or Corning Discovery Labware (Woburn, MA)
T1 sequence (P21397 1-527): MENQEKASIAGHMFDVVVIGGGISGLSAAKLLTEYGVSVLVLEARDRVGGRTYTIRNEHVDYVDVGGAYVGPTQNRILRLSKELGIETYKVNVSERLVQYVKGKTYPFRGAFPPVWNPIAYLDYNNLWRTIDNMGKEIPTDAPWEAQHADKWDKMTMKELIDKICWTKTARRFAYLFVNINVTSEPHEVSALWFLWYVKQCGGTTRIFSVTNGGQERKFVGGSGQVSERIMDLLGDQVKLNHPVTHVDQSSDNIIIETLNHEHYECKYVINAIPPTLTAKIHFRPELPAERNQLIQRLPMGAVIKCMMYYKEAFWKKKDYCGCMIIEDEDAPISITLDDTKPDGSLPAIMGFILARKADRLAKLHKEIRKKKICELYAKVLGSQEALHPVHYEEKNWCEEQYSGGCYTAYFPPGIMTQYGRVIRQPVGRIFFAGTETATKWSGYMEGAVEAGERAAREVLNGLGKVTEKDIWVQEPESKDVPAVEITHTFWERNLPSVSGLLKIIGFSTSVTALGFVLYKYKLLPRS

MAO-B [2] = target: T2, MAO-B (Homo sapiens, UniProt P27338); assay: MAO-B inhibition, kynuramine to 4-hydroxyquinoline, HPLC-fluorescence; assay type: biochemical
T2 construct: purchased BD Biosciences (San Jose, CA) or Corning Discovery Labware (Woburn, MA)
T2 sequence (P27338 1-520): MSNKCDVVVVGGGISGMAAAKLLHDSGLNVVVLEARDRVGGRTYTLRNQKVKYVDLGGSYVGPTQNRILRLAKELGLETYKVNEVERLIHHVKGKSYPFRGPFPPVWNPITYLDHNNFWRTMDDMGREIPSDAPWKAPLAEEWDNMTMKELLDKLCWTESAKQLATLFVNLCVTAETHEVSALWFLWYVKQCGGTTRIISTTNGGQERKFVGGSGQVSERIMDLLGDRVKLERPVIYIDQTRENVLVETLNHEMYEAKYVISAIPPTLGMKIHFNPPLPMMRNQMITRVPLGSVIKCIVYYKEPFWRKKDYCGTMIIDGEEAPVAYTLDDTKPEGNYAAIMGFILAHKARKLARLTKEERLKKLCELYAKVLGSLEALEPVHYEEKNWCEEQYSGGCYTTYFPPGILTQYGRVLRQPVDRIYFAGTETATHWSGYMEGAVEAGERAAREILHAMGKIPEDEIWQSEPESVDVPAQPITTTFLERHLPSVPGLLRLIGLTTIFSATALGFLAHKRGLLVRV

MAO-B [3] = target: T2, MAO-B; assay: Inhibition mechanism studies (competition, time dependence) with MAO-B; assay type: biochemical
[4] = rats, 56 or 168 mg/kg/day by gavage for 14 continuous days; cited from earlier work
[5] = human, 125mg twice daily orally for 6-8 weeks; cited from earlier work
MAO-A [6] = target: T1, MAO-A; details: competitive; cited from earlier work
MAO-B [7] = target: T2, MAO-B; details: competitive; cited from earlier work
MAO-A in rat brain = details: cited from earlier work
MAO-A [8] = details: cited from earlier work
MAO-B [9] = details: up to 10μM; cited from earlier work
[10] = cited from earlier work
[11] = highest expected luminal concentration: curcumin 140, guaiacol 435, isoeugenol 110, pterostilbene 270, resveratrol 94, zingerone 51 µM, p < 0.05 vs control
[12] = kynuramine 10 µM, MAO-A 0.01 mg/mL, 15 min

- inhibition of MAO-A activity in screening (MAO-A [1]; [11]): significantly inhibited
- IC50 (MAO-A [1]; [12]): 13.4 ± 1.5 µM
- MAO-A Hill coefficient (MAO-A [1]; [12]): 1.7 ± 0.3
- Selectivity Index (MAO-A [1]; ratio of MAO-B IC50/MAO-A IC50): 0.0103
- inhibition of MAO-B activity in screening (MAO-B [2]; [11]): significantly inhibited
- IC50 (MAO-B [2]; kynuramine 10 µM, MAO-B 0.01 mg/mL, 15 min): 0.138 ± 0.013 µM
- Vmax of kynuramine with MAO-B in presence of inhibitor (MAO-B [3]; pterostilbene 0.45 μM, kynuramine 2-450 μM): 3.28 ± 0.19 nmol/min/mg protein
Compound: COc1cc(/C=C/c2ccc(O)cc2)cc(OC)c1 [pterostilbene]
- mechanism of MAO-B inhibition (MAO-B [3]): competitive time-independent; also recorded: competitive, time-independent
- time profile of MAO-B activity on preincubation (MAO-B [3]; 0.7 μM, preincubation 0-60 min): not significantly different from the control
- oral bioavailability [4]: 80%
- plasma low-density lipoproteins [5]: slightly raised
- systolic and diastolic blood pressure [5]: reduces

Compound: C=CCc1ccc(O)c(OC)c1 [eugenol]
- Ki (MAO-A [6]): 26 µM
- Ki (MAO-B [7]): 211 µM

Compound: Oc1ccc(/C=C/c2cc(O)cc(O)c2)cc1 [resveratrol]
- Ki (MAO-B [2]; from IC50 assuming competitive inhibition): 10.2 µM
- IC50 (MAO-A in rat brain): 2 µM
- Ki (MAO-A in rat brain): 2.5 µM
- MAO-A inhibition (MAO-A [8]): inhibitor of MAO-A
- MAO-B inhibition (MAO-B [9]): did not significantly inhibit
- plasma protein binding [10]: 91%
